# Laboratory results from US12128028B2, “Heterocyclic sulfonamide derivatives and pharmaceutical uses thereof” (METRION BIOSCIENCES LIMITED, priority 2018, dated 2024).
# Target: human Kv1.3 (Homo sapiens (Human), UniProt P22001)
# Experiment: Kv1.3 potency evaluation, automated patch clamp electrophysiology (QPatch HT) in CHO-Kv1.3 cells
# Type: cell-based
# Details: whole-cell QPatch HT, % inhibition of charge, step to +30 mV, four concentrations, N≥3 cells, read-out: hKv1.3 IC50
# Source text: Biological Assays Kv1.3 Potency Evaluation Electrophysiology Recordings
# A proprietary Chinese hamster ovary cell line stably expressing exogenous human a-subunits of Kv1.3 (CHO-Kv1.3) channel, validated biophysically and pharmacologically in house, was used to assess the ability of test compounds to block Kv1.3 currents using automated patch clamp electrophysiology. The QPatch HT system (Sophion Bioscience A/S, Denmark) was used with the conventional whole-cell configuration. This system is an automated, chip-based planar patch clamp device allowing for up to 48 parallel independent experiments in one experimental assay run. Cells are added to each well and drawn by suction onto a small aperture to obtain a Gigaohm seal between the cell membrane and treated silicon surface, and whole-cell recordings initiated after access is achieved by suction and/or voltage pulses. The QPatch HT uses static perfusion, whereby a small volume of recording solution or drug is added to a reservoir on the chip and the solution perfuses across the cell through quartz-lined microfluidic channels; this solution is removed by capillary action when the next sample application is made.
# CHO-Kv1.3 cells were prepared for experiments by dissociation from T175 cell culture flasks using trypsin-EDTA (0.05%), cells were kept in serum free media in the cell hotel on board the QPatch HT. These cells were sampled, washed and re-suspended in extracellular recording solution by the QPatch HT immediately before application to the recording well site on the chip. Experiments were performed using the following solutions; extracellular solution contained (in mM); 150 NaCl, 10 KCl, 1 MgCl2, 3 CaCl2), 10 Glucose and 10 HEPES (pH 7.4, NaOH) and intracellular solution contained (in mM); 20 KCl, 120 KF, 10 HEPES, 10 EGTA, 5 ATP (pH 7.2, KOH).
# The potency (Inhibitory Concentration 50%, IC50) of synthesized compounds against Kv1.3 was determined from concentration-response relationships established by cumulatively applying four escalating concentrations of test compound to an individual cell and a minimum of N≥3 individual cells of data per compound were used to generate the IC50 value.
# On achieving the whole-cell configuration; two additions of vehicle (0.1-0.3% DMSO v/v) were applied to each cell in two bolus additions with a two minute recording period between each addition (four minutes total recording time). Following the vehicle period, four concentrations of test sample were applied as two bolus additions per test concentration at two minute intervals, and the effects on current measured during the four minute recording period.
# Currents were elicited using a single step voltage protocol. From a holding potential of −80 mV the cell is depolarised to +30 mV (500 ms) resulting in an outward current before finally repolarising the cell by returning to the holding potential. The command voltage was applied at a frequency of 0.067 Hz throughout the duration of the experiment. For each sweep of the voltage protocol membrane current and the passive properties of the individual cells were recorded by QPatch assay software (version 5.2). Cursors were placed to calculate the charge (integral of the current recorded during cursor interval) between 2-490 ms (0.4-99%) of the 500 ms step to +30 mV.
# The % inhibition of charge for each test concentration application period was calculated as the reduction in mean charge at the end of each concentration test period relative to the charge value measured at the end of the control (i.e. vehicle) period. Sigmoidal concentration response curves (four parameter logistic curve) were fitted to the % inhibition rom which the IC50 was determined. Curve fits were constrained at 0 and 100%.
# Sequence of human Kv1.3 (P22001 whole entry): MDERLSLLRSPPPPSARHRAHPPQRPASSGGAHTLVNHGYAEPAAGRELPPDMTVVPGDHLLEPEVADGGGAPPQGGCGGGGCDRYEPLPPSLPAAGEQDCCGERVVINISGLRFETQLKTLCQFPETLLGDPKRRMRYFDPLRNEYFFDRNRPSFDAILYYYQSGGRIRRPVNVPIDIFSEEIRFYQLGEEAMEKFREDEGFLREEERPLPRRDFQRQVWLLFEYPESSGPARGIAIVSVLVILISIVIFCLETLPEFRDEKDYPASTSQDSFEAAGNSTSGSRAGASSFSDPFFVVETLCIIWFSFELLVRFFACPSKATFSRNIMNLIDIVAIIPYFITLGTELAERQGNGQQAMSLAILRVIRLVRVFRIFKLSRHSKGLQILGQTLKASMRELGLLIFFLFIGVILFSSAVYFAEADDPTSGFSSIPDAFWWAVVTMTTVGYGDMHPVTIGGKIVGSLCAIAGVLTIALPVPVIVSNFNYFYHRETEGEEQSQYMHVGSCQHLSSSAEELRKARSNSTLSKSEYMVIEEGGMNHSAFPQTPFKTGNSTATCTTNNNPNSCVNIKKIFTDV
row,Compound,IC50 [nM]
1,CC1(C)N=C(C23CC(N(Cc4cccc(F)c4)S(=O)(=O)c4ccccc4)(C2)C3)N[C@H]1C(=O)NCCC(F)(F)F (mixture of isomers) [Example 40],46
2,CC1(C)N=C(C23CC(N(Cc4ccc(Cl)cc4)S(=O)(=O)N4CCCC4)(C2)C3)N[C@H]1C(=O)NCCC(F)(F)F (mixture of isomers) [Example 43],46
3,CC1(C)N=C(C23CC(N(Cc4ccc(Cl)cc4)S(=O)(=O)c4ccccc4)(C2)C3)N[C@H]1C(=O)NC1CC(C(F)F)C1 (mixture of isomers) [Example 45],46
4,CCCS(=O)(=O)N(Cc1ccc(Cl)c(Cl)c1)C12CC(C3=NC(C)(C)[C@H](C(=O)NCC(C)(C)C(F)(F)F)N3)(C1)C2 (mixture of isomers) [Example 46],47
5,CC1(C)N=C(C23CC(N(Cc4ccc(Cl)c(Cl)c4)S(=O)(=O)c4ccccc4)(C2)C3)N[C@H]1C(=O)NCC1CC(F)(F)C1 (mixture of isomers) [Example 47],47
6,CC1(C)N=C(C23CC(N(Cc4ccc(Cl)cc4)S(=O)(=O)c4ccccn4)(C2)C3)N[C@H]1C(=O)NCCC(F)(F)F (mixture of isomers) [Example 48],48
7,CC(C)(F)CNC(=O)[C@@H]1NC(C23CC(N(Cc4ccc(Cl)c(Cl)c4)S(=O)(=O)CCC(F)F)(C2)C3)=NC1(C)C (mixture of isomers) [Example 50],48
8,CC1(C)N=C(C23CC(N(Cc4ccc(Cl)cc4)S(=O)(=O)c4ccccc4)(C2)C3)N[C@H]1C(=O)NCC1CC1(F)F (mixture of isomers) [Example 51],48
9,CC(C)CS(=O)(=O)N(Cc1ccc(Cl)cc1)C12CC(C3=NC(C)(C)[C@H](C(=O)NCCC(F)(F)F)N3)(C1)C2 (mixture of isomers) [Example 54],50
10,CC1(C)N=C(C23CC(N(Cc4ccc(Cl)c(F)c4)S(=O)(=O)c4ccccc4)(C2)C3)N[C@H]1C(=O)N1CC(F)(F)C1 (mixture of isomers) [Example 55],50
11,CC1(C)N=C(C23CC(N(Cc4ccc(Cl)c(F)c4)S(=O)(=O)c4ccccc4)(C2)C3)N[C@H]1C(=O)N1CCC2(CC2)C1 (mixture of isomers) [Example 57],50

# Further molecules by falling IC50, results first:
row,IC50 [nM],Compound
1,51,CC1(C)N=C(C23CC(N(Cc4ccc(Cl)cc4)S(=O)(=O)c4cccc(F)c4)(C2)C3)N[C@H]1C(=O)NCCC(F)(F)F (mixture of isomers) [Example 59]
2,50,CC1(C)N=C(C23CC(N(Cc4ccc(Cl)c(F)c4)S(=O)(=O)c4ccccc4)(C2)C3)N[C@H]1C(=O)NCC1CC1 (mixture of isomers) [Example 56]
3,50,CN(CC(C)(C)F)C(=O)[C@@H]1NC(C23CC(N(Cc4ccc(Cl)c(Cl)c4)S(=O)(=O)c4ccccc4)(C2)C3)=NC1(C)C (mixture of isomers) [Example 58]
4,49,CC1(C)N=C(C23CC(N(Cc4ccc(Cl)cc4)S(=O)(=O)c4cccc(Cl)c4)(C2)C3)N[C@H]1C(=O)NCCC(F)(F)F (mixture of isomers) [Example 52]
5,49,CC(C)(C)CNC(=O)[C@@H]1NC(C23CC(N(Cc4ccc(Cl)c(F)c4)S(=O)(=O)c4ccccc4)(C2)C3)=NC1(C)C (mixture of isomers) [Example 53]
6,48,CC1(C)N=C(C23CC(N(Cc4ccc(Cl)cc4)S(=O)(=O)c4ccccc4)(C2)C3)N[C@H]1C(=O)NCC(C)(C)C(F)(F)F (mixture of isomers) [Example 49]
7,46,CC1(C)N=C(C23CC(N(Cc4ccc(Cl)cc4)S(=O)(=O)c4ccco4)(C2)C3)N[C@H]1C(=O)NCCC(F)(F)F (mixture of isomers) [Example 41]
8,46,CC1(C)N=C(C23CC(N(Cc4ccc(Cl)cc4)S(=O)(=O)C4CCCCC4)(C2)C3)N[C@H]1C(=O)NCCC(F)(F)F (mixture of isomers) [Example 42]
9,46,C[C@H]1CC(F)(F)CN1C(=O)[C@@H]1NC(C23CC(N(Cc4ccc(Cl)c(F)c4)S(=O)(=O)c4ccccc4)(C2)C3)=NC1(C)C (mixture of isomers) [Example 44]
